Data taken from patent US20030175365A1, “Natural drug induced differentiation cancer cells to resemble normal cells” (priority 2002, published 2003).
Marks after values point to notes of the source that are not given here.

Tests used:
HL-60 cells = assay: Induction of differentiation of human leukemic cells (NBT reduction, NSE staining); format: cell-based; conditions: Leukemic cells + HHT; P < 0.001 vs leukemic cells
Procedure: Cell Lines. HL-60 cells were established from a patient with acute myeloid leukemia. The cells were cultured in culture flasks with RPMI plus 10% FCS.
Studies of Induction of Differentiation. Differentiation of HL-60 cells was assessed by their abilities to produced superoxide as measured by reduction of NBT, by NSE staining and by morphology as detected on cytospin preparations stained with Diff-Quick stain Set, and by analysis of membrane-bound differentiation markers with two-color immunofluorescence. Briefly, cells were preincubated at 4° C. for 60 min in 10% human AB serum and then with FITC-conjugated mouse IgGI isotype control. Analysis of fluorescence was performed on a flow cytometer.

gastric cancer cells = assay: Differentiation of gastric cancer cells (NBT, NSE); format: cell-based; conditions: Gastric cancer cells + HHT; P < 0.001
Procedure: The gastric cancer cells and normal cells were cultured in PRMI 1640 medium supplement with 10% FCS serum. Other method is similar to example 1.

Epidermis cancer cells = assay: Differentiation of epidermis cancer cells (NBT, NSE); format: cell-based, mouse; conditions: Epidermis cancer cells + HHT; P < 0.001
[1] = tested on: TPA-stimulated mouse epidermis; assay: [3H] thymidine incorporation (DNA synthesis) in TPA-stimulated mouse epidermis; format: in vivo; conditions: TPA-treated mice
Procedure: It is known that tetradecanoyphorbol-13-acetate (TPA) is strong tumor promoter and TPA can remarkable increase [^3H] thymidine incorporation in mouse epidermis and then to induce Epidermis cancer.
ice were treated with TPA and the rate of [^3H] thymidine incorporation was determined 20 hours later. Male mice (7-9 weeks old) used for experiments. Only mice showing no hair regrowth following shaving were used. Animals were injected intraperitoneally (i.p.) with TPA or 95% saline. After 20 hours, mice were injected i.p. with 60 μCi of [^3H] thymidine (2 Ci/mmol) 20 minutes before sacrifice. Epidermal scrapings were prepared. Epidermis cancer cells were cultured in condition of example 1.

[2] = tested on: Human leukemia cells (HL-60); assay: Apoptosis of cancer cells; format: cell-based; conditions: drug concentration 20 μm
Procedure: Human leukemia cells (HL-60) were grown in RPMI Medium 1640 supplemented with 10% (v/v) heat-inactivated FBS (56° C. for 30 min) at 37° C. in a humidified 95% air/5% CO2 atmosphere. Cells were seeded at a level of 2×10^5 cells/ml. Cells were allowed to attain a maximum density of 1.2×10^6 cells/ml before being passed by dilution into fresh medium to a concentration of 2×10^5 cells/ml.
Apoptosis Determined by two Methods:
Method (1): Cell pellets containing 5×10^6 cells were fixed with 2.5% glutaraldehyde in cacodylate buffer (pH 7.4), dehydrated through graded alcohol, and infiltrated with LX-112 epoxy resin. After overnight polymerization at 60°C. […]
DNA electrophoresis: Untreated and treated HL-60 cells collected by centrifugation, washed in phosphate buffered saline and re-suspended at a concentration of 5×10^6 cells and 0.1% RNase A. The mixture was incubated at 37° C. for 30 min and then incubated for an additional 30 min at 37° C. with 1 ml protease K. Buffer was added and 25 μl of the tube content transferred to the Horizontal 1.5% agarose gel electrophoresis was performed at 2 V/cm. […] DNA fragmentation assays: DNA cleavage was performed, quantitation of fractional solubilized DNA by diphenylamine assay and the percentage of cells harboring fragmented DNA determined by in labeling techniques. […] DNA was precipitated with 0.5 N perchloric acid and quantitated using diphenylamine reagent. […]

c-myb RNA = assay: Oncogene expression by northern blot in ML-1 cells: c-myb; format: cell-based, Human
Procedure: (§1) Human myeloblastic leukemic cells (ML-1) were maintained in suspension culture in RPMI 1640 medium supplemented with 7.5% heat-inactivated FBS. Cells growth and viability were assayed by hemocytometer using trypan-blue dye exclusion.
(§2) RNA was isolated by the CsCl gradient modification. RNA pellets were washed twice by reprecipitation in ethanol and quantitated by absorbency at […]. RNA analyzed by electrophoresis of 15 μg of RNA through 1.2% agarose formaldehyde gels followed by northern blot transfer to nitrocellulose.
(§3) Single-standard uniformly labeled DNA probes were prepared. Probe of c-myc was a 1.7 Kb cla-Eco RI restriction fragment containing the 3′exon region of human c-myc and probe of c-myb was 1.0 Kb myb-specific Bam HI fragment. Probes for n-ras contained DNA fragments using a modification of the PCR technique. Probes for myb, myc and n-ras were isolated. The isolated fragments were labeled to high specific activity with […] (3000 ci/mmol). Prehybridization of the filter was performed. The hybridization mixer contained 50,000 cpm of probe. The probes were hybridized at 58° C. in 15 mM NaCl, […] sodium citrate for 3 hours. After hybridization, they were exposed to XAR-5 film. Oncogene expression was quantitated by densitometer scanning of the autoradiography.

c-myc RNA = assay: Oncogene expression by northern blot in ML-1 cells: c-myc; format: cell-based, Human
Procedure: as §1, §2, §3

tumor suppressor p^53 = assay: p53 mutations by PCR-SSCP; format: cell-based
Procedure: The leukemic cancer cells and normal cells were cultured in RPMI 1640 medium supplement with 10% fetal bovine serum. All the exons of the p^53 were amplified by the polymease chain reaction (PCR) using specific oligonucleotide primers. The PCR products were subjected to single-strand conformation polymorphism (SSCP) analysis. […] Levels of DNA methylation were determined.

tumor suppressor p^17 = assay: p17 allelic loss by PCR-SSCP; format: cell-based
Procedure: The p^17 is a tumor suppressor. The gastric cancer cells were used in this experiment. Gastric cancer cells and normal cells were cultured in RPMI 1640 medium supplement with 10% fetal bovine serum. All the exons of tumor suppressor p^17 were amplified by the polymease chain reaction (PCR) using specific oligonucleotide primers. The PCR products were subjected to single-strand conformation polymorphism (SSCP) analysis. A second PCR-SSCP analysis was performed. Levels of DNA methylation were determined.

tumor suppressor p^16 = assay: Methylation of tumor suppressor p16 (PCR-based) in bladder cell lines; conditions: Cancer cells treated by HHT (no treatment: 81.5; normal: 15.8)
Source text: Bladder cell lines were used. Methods of RT-PCR were regular. PCR-based methylation determined by inability of some restriction enzymes to cut methylated sequences methods of determination was used to analyze the methylaton status of the p^16 and p^15 . PCR products were resolved on 2% agarose gels transferred to a nylon membrane and hydridized for the RT-PCR products. An undigested DNA control and MSPI-digested DNA control were examined.

HL-60 = assay: Tumor cell proliferation inhibition, HL-60; format: cell-based, Human; conditions: 1 μg/ml drug, 72 hours
Procedure: (§4) Human tumor cell lines: Hela leukemia HL-60, malignant melanocarcinoma B16, oral epidermoid carcinoma (KB), lung carcinoma (A549), breast carcinoma MCF-7, adenocarcinoma of stomach.
(§5) Animal tumor cell lines: Walker carcinoma, LLC-WRC-256, malignant melanoma (RMMI 1846), 3T3,and S-180 sarcoma (CCRF-180). All lines were routinely cultured in the RPMI1640 medium supplemented 20% fetal calf serum. The experiment was carried out in 96 microplate, each well had […] and given desired concentration of 1 μg/ml (1 x 10^−6 g/ml) drug. Then the plate was incubated at 37° C. in an atmosphere of humidified air enriched with 5 percent carbon dioxide for 72 hours.
(§6) Inhibition percent rate of tumor cell proliferation was obtained according to the bellow formula. [formula]

Hela = assay: Tumor cell proliferation inhibition, Hela; format: cell-based, Human; conditions: 1 μg/ml drug, 72 hours
Procedure: as §4, §5, §6

[3] = tested on: malignant melanocarcinoma B16; assay: Tumor cell proliferation inhibition, B16; format: cell-based, Mouse; conditions: 1 μg/ml drug, 72 hours
Procedure: as §4, §5, §6

[4] = tested on: oral epidermoid carcinoma (KB); assay: Tumor cell proliferation inhibition, KB; format: cell-based, Human; conditions: 1 μg/ml drug, 72 hours
Procedure: as §4, §5, §6

breast carcinoma MCF-7 = assay: Tumor cell proliferation inhibition, MCF-7; format: cell-based, Human; conditions: 1 μg/ml drug, 72 hours
Procedure: as §4, §5, §6

[5] = tested on: Neuroblastoma tumor cells, melanocytic and epithelial cells; assay: Apoptosis with HHT and APO-2L (filter binding assay); format: cell-based
Procedure: (§7) Neuroblastoma tumor cells, melanocytic and epithelial cells used in this experiment. Cells were grown routinely as monolayers in a 1:1 mixture of Eagle's minimum essential medium and Ham's nutrient mixture F-12 supplemented with 15% heat-inactivated fetal calf serum. Cells were used over a maximum of 15 passages to minimize intersubline differentiation.
Cytotoxicity Assays. Etoposide sensitivity was measured by clonogenic assay. Five hundred cells were plated per 2-cm^2 dish. Cells were treated for 1 hour with HHT or medium. Results are the mean ±S.E. of three independent experiments and duplicate plates were used in each individual experiment. Apoptosis was quantified by the filter binding assay.

caspase-3 = assay: Determination of caspase activation (Ac-DEVD-AMC substrate, cell lysate); format: cell-based; conditions: control 25.4 ± 3.0
Procedure: as §7
Determination of Caspase Activation. The substrate used was Ac-DEVD-AMC, which was made to 5 mM stock in dimethylformamide. On the day of the assay, substrate stock was diluted in water to 500 μM and kept on ice. Cell lysate (20 μg) was diluted to equal volumes (20 μl) in Nonidet-P40 lysis buffer and 1/10th of the volume of substrate was added. Exactly 10 min later, the reaction was stopped by adding the mix into 2 ml of water. Fluorescence was read on a fluorometer at an excitation wavelength of 380 nm and emission wavelength of 460 nm.

mice = assay: LD50 in mice; format: in vivo; conditions: I.P.
Procedure: (§8) Toxic doses for dogs: 0.16 mg/kg/day×7 of HHT was established as the toxic doses. Toxic doses for mice: In 38 normal mice after injection of HHT of 2 mg/kg/day×5 with the observation period of 5 days about 50% of the mice died.

dogs = assay: Toxic doses for dogs; format: in vivo; conditions: ×7
Procedure: as §8

normal mice = assay: Toxic doses for mice (repeated injection); format: in vivo; conditions: 38 normal mice, injection of 2 mg/kg/day×5, observation period of 5 days
Procedure: as §8

Question: `COC(=O)C[C@](O)(CCCC(C)(C)O)C(=O)O[C@@H]1C(OC)=C[C@]23CCCN2CCc2cc4c(cc2[C@H]13)OCO4` [HHT, homoharringtonine] was tested. Which “NBT (%)” value (HL-60 cells) did it give?
Answer: 65* %

Question: What about the “NSE (%)” value (HL-60 cells) of the same molecule?
Answer: 62* %

Question: What about the “NBT (%)” value (gastric cancer cells) of the same molecule?
Answer: 58* %

Question: And the “NSE (%)” value (gastric cancer cells)?
Answer: 60* %

Question: What about the “NBT (%)” value (Epidermis cancer cells) of the same molecule?
Answer: 80* %

Question: What about the “NSE (%)” value (Epidermis cancer cells) of the same molecule?
Answer: 78* %

Question: What about the “DNA synthesis of TPA-stimulated mouse epidermis” value [1] of the same molecule?
Answer: remarkable inhibit

Question: What about the “Apoptosis (%)” value [2] of the same molecule?
Answer: 68.3 ± 7.6%

Question: What about the “Inhibition (%) c-myb RNA” value (c-myb RNA; HHT concentration 10 ng/ml) of the same molecule?
Answer: 65.0 ± 5.7%

Question: What about the “Inhibition (%) c-myb RNA” value (c-myb RNA; HHT concentration 50 ng/ml) of the same molecule?
Answer: 67.7 ± 6.8%

Question: And the “Inhibition (%) c-myc RNA” value (c-myc RNA; HHT concentration 10 ng/ml)?
Answer: 70.5 ± 8.5%

Question: What about the “Inhibition (%) c-myc RNA” value (c-myc RNA; HHT concentration 50 ng/ml) of the same molecule?
Answer: 70.8 ± 8.9%

Question: What about the “Frequency of p^53 mutations (%)” value (tumor suppressor p^53; Gastric cancer cells treated by HHT (no drug: 35)) of the same molecule?
Answer: 5%

Question: And the “Inhibition T/C (%)” value (tumor suppressor p^53; p^53 mutations, Gastric cancer cells treated by HHT)?
Answer: 14.3 ± 1.5%

Question: What about the “Frequency of p^17 allelic loss (%)” value (tumor suppressor p^17; Leukemic cancer cells treated by HHT (untreated: 40)) of the same molecule?
Answer: 5%

Question: What about the “Inhibition T/C (%)” value (tumor suppressor p^17; p^17 allelic loss, Leukemic cancer cells treated by HHT) of the same molecule?
Answer: 12.5 ± 1.2%

Question: What about the “Methylation (%)” value (tumor suppressor p^16) of the same molecule?
Answer: 23.8^b %

Question: What about the “Inhibition (%)” value (HL-60) of the same molecule?
Answer: 80.8 ± 9.0%

Question: What about the “Inhibition (%)” value (Hela) of the same molecule?
Answer: 75.6 ± 8.0%

Question: And the “Inhibition (%)” value [3]?
Answer: 73.8 ± 8.1%

Question: And the “Inhibition (%)” value [4]?
Answer: 80.0 ± 8.5%

Question: And the “Inhibition (%)” value (breast carcinoma MCF-7)?
Answer: 78.5 ± 7.9%

Question: What about the “Apoptosis (%)” value ([5]; HHT 500 nM (control 5.0 ± 0.49)) of the same molecule?
Answer: 39.5 ± 4.1%

Question: And the Caspase-3 activity (caspase-3)?
Answer: 150.5 ± 16

Question: And the LD50 (mice)?
Answer: 3.17 ± 0.19 mg/kg

Question: What about the Toxic dose (dogs) of the same molecule?
Answer: 0.16 mg/kg/day

Question: And the mice died (normal mice)?
Answer: about 50%

B1: APO-2L: also called TRAIL, has been shown to induce apoptosis of variety of cancer cell types (protein, UniProt P50591 1-281, looked up)
Tumor necrosis factor ligand …: MAMMEVQGGPSLGQTCVLIVIFTVLLQSLCVAVTYVYFTNELKQMQDKYSKSGIACFLKEDDSYWDPNDEESMNSPCWQVKWQLRQLVRKMILRTSEETISTVQEKQQNISPLVRERGPQRVAAHITGTRGRSNTLSSPNSKNEKALGRKINSWESSRSGHSFLSNLHLRNGELVIHEKGFYYIYSQTYFRFQEEIKENTKNDKQMVQYIYKYTSYPDPILLMKSARNSCWSKDAEYGLYSIYQGGIFELKENDRIFVSVTNEHLIDMDHEASFFGAFLVG
Question: With B1 as the molecule, how does the “Apoptosis (%)” value ([5]; APO-2L (control 5.0 ± 0.49)) read?
Answer: 20.8 ± 2.0%
